This note sets out measurements from US10335409B2 (priority 2012, dated 2019).

The subject of assay [1] is genotype 1b (Con1) stable HCV replicon in Huh-7-derived cells. The assay is described as follows: Stable subgenomic HCV replicon EC50, genotype 1b (Renilla luciferase). The class given is cell-based, hepatitis C virus. The note with it: Hepatitis C virus, stable replicon genotype 1b, 72 h, read-out: EC50 1B RLUC. An outline of the steps:
(§1)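 Compounds, three-fold diluted, were applied to Huh-7-derived cells harbouring luciferase replicons (genotype 1a H77, 1b Con1, 2a JFH-1, 4a ED43, with strain-specific adaptive mutations). Seventy-two hours later, intracellular replication was gauged by Renilla luciferase activity and EC50 derived by regression.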

The subject of assay [2] is genotype 3a (S52) stable HCV replicon in Huh-7-derived cells. The assay can be described thus: Stable subgenomic HCV replicon EC50, genotype 3a (Renilla luciferase). The note with it: Hepatitis C virus, 72 h, read-out: EC50 3A RLUC. The class given is cell-based, hepatitis C virus. On the technique in general: In antiviral work, replicon cells carry a viral genome segment that copies itself.

Assay [3] addresses HCV NS3 protease domain genotype 1b (Hepatitis C virus genotype 1b (isolate Con1), UniProt Q9WMX2, E1202G). The assay is described as follows: Ki determination, NS3 protease genotype 1b (fluorogenic depsipeptide substrate). The class given is biochemical. To be noted: 50 pM enzyme, NS4A peptide.
Assay [4] concerns genotype 3a (S52) wild type transient HCV replicon in Huh-7-derived cells. The assay can be described thus: Transient-transfected HCV replicon EC50, genotype 3a wild type. The class given is cell-based, hepatitis C virus. To be noted: Hepatitis C virus; transient-transfected replicon genotype 3a wild type, 72 h; read-out: EC50 3A WT.
In assay [5] the target is HCV NS3 protease domain genotype 3a (Hepatitis C virus genotype 3a, UniProt Q81258). The assay can be described thus: Ki determination, NS3 protease genotype 3a (fluorogenic depsipeptide substrate). The class given is biochemical. The note with it: 200 pM enzyme, NS4A peptide. An outline of the steps: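 The NS3 protease domain (aa 1-181) with 20 μM NS4A peptide was used at 50 pM with 4 μM substrate (1b) or at 200 pM with 2 μM substrate (3a). Inhibitors (100 nM-5 pM) were pre-incubated 1 h at room temperature in HEPES/glycerol/DTT buffer with 10% DMSO. Steady-state rates (90-120 min) gave Ki via the Morrison equation, corrected for active enzyme and [S]/Km.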
Sequence of HCV NS3 protease domain genotype 3a (Q81258 whole entry, looked up, the tested form may be a part): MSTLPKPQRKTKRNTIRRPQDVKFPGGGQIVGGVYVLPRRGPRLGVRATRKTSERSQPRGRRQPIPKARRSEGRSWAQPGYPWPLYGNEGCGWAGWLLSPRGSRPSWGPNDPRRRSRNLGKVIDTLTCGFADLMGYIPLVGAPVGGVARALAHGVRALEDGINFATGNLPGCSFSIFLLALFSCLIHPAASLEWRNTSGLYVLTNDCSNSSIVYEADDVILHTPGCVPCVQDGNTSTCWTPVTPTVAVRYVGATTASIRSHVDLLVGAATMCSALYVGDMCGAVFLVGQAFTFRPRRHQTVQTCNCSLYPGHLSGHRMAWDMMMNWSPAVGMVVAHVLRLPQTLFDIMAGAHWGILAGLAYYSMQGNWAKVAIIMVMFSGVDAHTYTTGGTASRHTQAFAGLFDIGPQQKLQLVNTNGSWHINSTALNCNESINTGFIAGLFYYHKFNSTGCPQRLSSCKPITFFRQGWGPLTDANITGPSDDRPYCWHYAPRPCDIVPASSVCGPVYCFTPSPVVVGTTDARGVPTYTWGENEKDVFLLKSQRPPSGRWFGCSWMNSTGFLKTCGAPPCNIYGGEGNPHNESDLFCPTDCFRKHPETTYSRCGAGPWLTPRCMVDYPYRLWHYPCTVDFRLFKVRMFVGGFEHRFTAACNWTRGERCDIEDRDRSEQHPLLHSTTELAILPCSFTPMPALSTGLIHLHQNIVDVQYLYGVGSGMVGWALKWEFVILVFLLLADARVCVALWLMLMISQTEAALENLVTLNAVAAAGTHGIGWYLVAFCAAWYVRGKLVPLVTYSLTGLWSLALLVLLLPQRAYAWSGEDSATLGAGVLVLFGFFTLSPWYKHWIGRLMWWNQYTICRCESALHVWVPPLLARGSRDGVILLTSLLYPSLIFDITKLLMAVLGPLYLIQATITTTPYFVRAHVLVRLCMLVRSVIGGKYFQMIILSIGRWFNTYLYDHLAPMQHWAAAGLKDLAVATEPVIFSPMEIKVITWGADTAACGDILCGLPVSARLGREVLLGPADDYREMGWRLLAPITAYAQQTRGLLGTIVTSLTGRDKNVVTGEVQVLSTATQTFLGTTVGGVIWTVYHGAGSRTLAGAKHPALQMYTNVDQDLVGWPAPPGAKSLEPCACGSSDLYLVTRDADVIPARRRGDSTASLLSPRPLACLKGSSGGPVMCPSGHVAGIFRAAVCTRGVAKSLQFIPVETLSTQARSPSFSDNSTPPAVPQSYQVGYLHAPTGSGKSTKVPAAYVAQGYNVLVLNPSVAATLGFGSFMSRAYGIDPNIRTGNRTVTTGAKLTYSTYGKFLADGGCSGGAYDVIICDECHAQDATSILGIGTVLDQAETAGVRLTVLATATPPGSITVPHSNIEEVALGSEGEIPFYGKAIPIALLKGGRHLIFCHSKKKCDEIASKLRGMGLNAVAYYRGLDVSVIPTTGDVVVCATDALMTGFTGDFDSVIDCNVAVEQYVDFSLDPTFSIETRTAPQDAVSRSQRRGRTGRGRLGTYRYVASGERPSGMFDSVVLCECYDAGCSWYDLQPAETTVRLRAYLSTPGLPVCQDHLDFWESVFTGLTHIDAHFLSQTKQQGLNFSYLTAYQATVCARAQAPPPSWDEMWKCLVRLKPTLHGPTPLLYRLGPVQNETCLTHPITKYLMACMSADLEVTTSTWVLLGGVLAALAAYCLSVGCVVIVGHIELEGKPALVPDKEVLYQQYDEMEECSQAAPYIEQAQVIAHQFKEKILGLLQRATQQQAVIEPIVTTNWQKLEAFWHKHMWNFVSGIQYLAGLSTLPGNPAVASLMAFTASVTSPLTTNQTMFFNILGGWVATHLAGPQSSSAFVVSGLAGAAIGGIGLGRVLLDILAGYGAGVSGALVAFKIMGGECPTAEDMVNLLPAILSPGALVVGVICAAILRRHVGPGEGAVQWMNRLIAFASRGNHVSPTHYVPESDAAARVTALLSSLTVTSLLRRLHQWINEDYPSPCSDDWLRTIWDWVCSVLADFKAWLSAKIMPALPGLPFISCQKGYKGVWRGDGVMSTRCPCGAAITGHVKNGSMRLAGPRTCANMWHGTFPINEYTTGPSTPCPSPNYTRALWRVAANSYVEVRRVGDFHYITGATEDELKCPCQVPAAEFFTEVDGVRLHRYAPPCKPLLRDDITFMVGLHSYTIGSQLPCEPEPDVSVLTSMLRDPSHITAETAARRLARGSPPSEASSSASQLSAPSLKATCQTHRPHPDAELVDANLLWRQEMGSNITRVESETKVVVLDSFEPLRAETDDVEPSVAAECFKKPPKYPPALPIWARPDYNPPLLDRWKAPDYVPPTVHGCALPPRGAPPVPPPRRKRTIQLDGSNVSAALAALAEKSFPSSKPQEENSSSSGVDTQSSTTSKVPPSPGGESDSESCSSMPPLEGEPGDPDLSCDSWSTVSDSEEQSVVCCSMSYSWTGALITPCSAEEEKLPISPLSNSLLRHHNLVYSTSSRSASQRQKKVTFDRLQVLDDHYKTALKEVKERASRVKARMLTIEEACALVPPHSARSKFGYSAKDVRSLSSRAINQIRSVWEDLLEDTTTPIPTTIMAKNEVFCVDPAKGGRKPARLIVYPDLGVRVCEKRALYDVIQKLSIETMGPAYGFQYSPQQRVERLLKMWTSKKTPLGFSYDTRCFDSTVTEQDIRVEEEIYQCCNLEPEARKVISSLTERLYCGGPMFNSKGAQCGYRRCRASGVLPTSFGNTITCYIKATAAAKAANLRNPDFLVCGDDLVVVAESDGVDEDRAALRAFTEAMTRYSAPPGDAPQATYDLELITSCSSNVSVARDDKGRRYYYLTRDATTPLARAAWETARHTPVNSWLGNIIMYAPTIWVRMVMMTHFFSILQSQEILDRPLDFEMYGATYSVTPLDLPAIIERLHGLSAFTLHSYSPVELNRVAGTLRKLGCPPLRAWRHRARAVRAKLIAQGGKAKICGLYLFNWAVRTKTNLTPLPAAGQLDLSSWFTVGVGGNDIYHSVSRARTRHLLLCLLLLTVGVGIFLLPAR

Assay [6] has as its system genotype 4a (ED43) stable HCV replicon in Huh-7-derived cells. The assay can be described thus: Stable subgenomic HCV replicon EC50, genotype 4a (Renilla luciferase). The class given is cell-based, hepatitis C virus. To be noted: Hepatitis C virus, 72 h, read-out: EC50 4A RLUC. An outline of the steps:
as §1

The subject of assay [7] is genotype 1a (H77) stable HCV replicon in Huh-7-derived cells. The assay can be described thus: Stable subgenomic HCV replicon EC50, genotype 1a (Renilla luciferase). To be noted: Hepatitis C virus, stable replicon genotype 1a, 72 h, read-out: EC50 1A RLUC. The class given is cell-based, hepatitis C virus. An outline of the steps:
as §1

The subject of assay [8] is genotype 1a NS3/4a protease inhibitor resistant variant R155K transient HCV replicon in Huh-7-derived cells. The assay is described as follows: Transient-transfected HCV replicon EC50, genotype 1a R155K. The class given is cell-based, hepatitis C virus. To be noted: Hepatitis C virus, 72 h, read-out: EC50 1A R155K, transient-transfected replicon genotype 1a R155K resistant variant, 72 h.

Assay [9] concerns genotype 2a (JFH-1) stable HCV replicon in Huh-7-derived cells. The assay can be described thus: Stable subgenomic HCV replicon EC50, genotype 2a (Renilla luciferase). To be noted: Hepatitis C virus, stable replicon genotype 2a, 72 h, read-out: EC50 2A RLUC. The class given is cell-based, hepatitis C virus. An outline of the steps: as §1
For assay [10], the system named is genotype 1b NS3/4a protease inhibitor resistant variant D168A transient HCV replicon in Huh-7-derived cells. The assay can be described thus: Transient-transfected HCV replicon EC50, genotype 1b D168A. The note with it: Hepatitis C virus, 72 h, read-out: EC50 1B D168A, transient-transfected replicon genotype 1b D168A resistant variant, 72 h. The class given is cell-based, hepatitis C virus.

Assay [11] deals with genotype 1a (H77) wild type transient HCV replicon in Huh-7-derived cells. The assay is described as follows: Transient-transfected HCV replicon EC50, genotype 1a wild type. The class given is cell-based, hepatitis C virus. The note with it: Hepatitis C virus, 72 h, transient-transfected replicon genotype 1a wild type, read-out: EC50 1A WT.
For assay [12], the system named is genotype 1b (Con1) wild type transient HCV replicon in Huh-7-derived cells. The assay can be described thus: Transient-transfected HCV replicon EC50, genotype 1b wild type. The class given is cell-based, hepatitis C virus. To be noted: Hepatitis C virus, 72 h, transient-transfected replicon genotype 1b wild type, read-out: EC50 1B WT.

Sequence of HCV NS3 protease domain genotype 1b (Q9WMX2 1027-1208 E1202G): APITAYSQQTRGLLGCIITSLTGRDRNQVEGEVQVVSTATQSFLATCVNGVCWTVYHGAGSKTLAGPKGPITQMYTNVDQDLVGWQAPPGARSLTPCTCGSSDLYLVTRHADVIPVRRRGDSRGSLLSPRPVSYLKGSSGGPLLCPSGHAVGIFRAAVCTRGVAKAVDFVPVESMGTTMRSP

`COc1ccc2nc3c(nc2c1)O[C@H]1CN(C(=O)[C@H](C(C)(C)C)NC(=O)O[C@@H]2C[C@@H]4C[C@@H]4[C@H]2CCCCC3)[C@H](C(=O)NC2(C(=O)NS(=O)(=O)C3CC3)C[C@H]2C(F)F)[C@@H]1C` (stereo in doubt) [Example 33, (1aS,2aR,6S,9S,10S,11R,23aR,23bS)-6-tert-butyl-N-[(1 S,2R)-1-[(cyclopropylsulfonyl)carbamoyl]-2-(difluoromethyl)cyclopropyl]-15-methoxy-10-methyl-4,7-dioxo-1a,2,2a,4,5,6,7,10,11,19,20,21,22,23,23a,23b-hexadecahydro-1H,9H-8,11-methanocyclopropa[4′,5′]cyclopenta[1′,2′:18,19][1,10,3,6]dioxadiazacyclononadecino[11,12-b]quinoxaline-9-carboxamide]: the EC50 in [1] stood at 2.8 nM; in assay [2], 16 nM; in assay [4], 5.3 nM; in assay [6], 2.3 nM; in assay [7], 7.6 nM; in assay [8], 2.5 nM. The EC50 in [9] stood at 4.9 nM; in assay [10] it was 4.2 nM; in assay [11], 2.6 nM; in assay [12] it was 1.6 nM. Also, the values for the Ki in assay [3] and in [5] were 0.03 nM and 0.06 nM, respectively.
As for `CCC[C@@H]1[C@@H]2CN(C(=O)[C@H](C(C)(C)C)NC(=O)O[C@@H]3C[C@H]3CCCCC(F)(F)c3nc4ccc(OC)cc4nc3O2)[C@@H]1C(=O)N[C@]1(C(=O)NS(=O)(=O)C2CC2)C[C@H]1C(F)F` [Example 60, (1aR,5S,8S,9S,10R,22aR)-5-tert-butyl-N-[(1R,2R)-1-[(cyclopropylsulfonyl)carbamoyl]-2-(difluoromethyl)cyclopropyl]-18,18-difluoro-14-methoxy-3,6-dioxo-9-propyl-1,1a,3,4,5,6,9,10,18,19,20,21,22,22a-tetradecahydro-8H-7,10-methanocyclopropa[18,19][1,10,3,6]dioxadiazacyclononadecino[11,12-b]quinoxaline-8-carboxamide], the EC50 in assay [1] was 4.8 nM; in assay [2] it was 45 nM; in assay [4], 9.8 nM; in assay [6], 5.4 nM; in assay [7], 11 nM; in assay [8], 8.6 nM. Moreover, the EC50 is 7.7 nM in assay [9], 15 nM in assay [10], 5.8 nM in assay [11] and 2.3 nM in [12]. Further, the Ki is 0.04 nM in assay [3] and 0.08 nM in [5].
`CC[C@@H]1[C@@H]2CN(C(=O)[C@H](C(C)(C)C)NC(=O)O[C@@H]3C[C@@H]4C[C@@H]4[C@H]3CCCCCc3nc4ccc(OC)cc4nc3O2)[C@@H]1C(=O)N[C@]1(C(=O)NS(=O)(=O)C2CC2)C[C@H]1C(F)F` [Example 70, (1aS,2aR,6S,9S,10S,11R,23aR,23bS)-6-tert-butyl-N-[(1R,2R)-1-[(cyclopropylsulfonyl)carbamoyl]-2-(difluoromethyl)cyclopropyl]-10-ethyl-15-methoxy-4,7-dioxo-1a,2,2a,4,5,6,7,10,11,19,20,21,22,23,23a,23b-hexadecahydro-1H,9H-8,11-methanocyclopropa[4′,5′]cyclopenta[1′,2′:18,19][1,10,3,6]dioxadiazacyclononadecino[11,12-b]quinoxaline-9-carboxamide]: the EC50 in assay [1] turned out to be 8.5 nM; in [2], 41 nM; in [4], 17 nM; in assay [6] it was 6.4 nM; in assay [7], 8.4 nM; in [8], 5.4 nM. The EC50 in [9] is 15 nM; in assay [10] it was 7.3 nM; in [11] it was 7.7 nM; in [12], 6.1 nM. Also, the Ki in [3] and in [5] was 0.05 nM each time.

The term EC50 denotes the concentration that produces a half-maximal response. As a reminder, the Ki is the equilibrium dissociation constant of an inhibitor or competing ligand from its target. The low end stands for a stronger hold on the target, the high end for a looser hold on the target.
